ChEMBL document CHEMBL5137127, “Astramalabaricosides A-T, Highly Oxygenated Malabaricane Triterpenoids with Migratory Inhibitory Activity from Astragalus membranaceus var. mongholicus” (J Nat Prod, 2022)
Active and inactive are the calls of the source. No cut-off for these calls is given here.

system: HepG2; assay: Antimigratory activity against human HepG2 cells assessed as inhibition of cell migration at 100 uM measured upto 24 hrs by inverted microscopy based scratch wound healing assay; assay type: functional

With `CC(=O)N[C@H]1[C@H](O[C@H]2[C@H](O[C@H]3[C@H](O[C@H]4CC[C@]5(C)[C@H]6C[C@@H](O)[C@@H]([C@](C)(O)CC/C=C(\C)C[C@@H]7OC(=O)O[C@H]7[C@](C)(O)CO)[C@]6(C)CC[C@H]5C4(C)C)O[C@H](CO[C@@H]4OC[C@@H](O)[C@H](O)[C@H]4O)[C@@H](OC(C)=O)[C@@H]3O)O[C@@H](C)[C@H](O)[C@H]2O)O[C@H](CO)[C@@H](O)[C@@H]1O` as the compound, how does the Activity read?
Its Activity is “Active”.

How did the Activity turn out when `CC(=O)N[C@H]1[C@H](O[C@H]2[C@H](O[C@H]3[C@H](O[C@H]4CC[C@]5(C)[C@H]6C[C@@H](O)[C@@H]([C@](C)(O)CC/C=C(\C)C[C@@H]7OC(=O)O[C@H]7[C@](C)(O)CO)[C@]6(C)CC[C@H]5C4(C)C)O[C@H](CO[C@@H]4OC[C@@H](O)[C@H](O)[C@H]4O)[C@@H](O)[C@@H]3OC(C)=O)O[C@@H](C)[C@H](O)[C@H]2O)O[C@H](CO)[C@@H](O)[C@@H]1O` was run?
The Activity was “Active”.

`CC(=O)N[C@H]1[C@H](O[C@H]2[C@H](O[C@H]3[C@H](O[C@H]4CC[C@]5(C)[C@H]6C[C@@H](O)[C@@H]([C@](C)(O)CC/C=C(\C)C[C@H](O)[C@H](O)C(C)(C)O)[C@]6(C)CC[C@H]5C4(C)C)O[C@H](CO[C@@H]4OC[C@@H](O)[C@H](O)[C@H]4O)[C@@H](O)[C@@H]3O)O[C@@H](C)[C@H](O)[C@H]2O)O[C@H](CO)[C@@H](O)[C@@H]1O[C@@H]1OC[C@H](O)[C@H](O)[C@H]1O` was tested. Which Activity did it give?
The Activity was “Active”.

For `C/C(=C\CC[C@@](C)(O)[C@@H]1[C@H](O)C[C@H]2[C@@]1(C)CC[C@H]1C(C)(C)[C@@H](O[C@@H]3O[C@H](CO[C@@H]4OC[C@@H](O)[C@H](O)[C@H]4O)[C@@H](O)[C@H](O)[C@H]3O[C@@H]3O[C@@H](C)[C@H](O)[C@@H](O)[C@H]3O)CC[C@]21C)C[C@H](O)[C@@H](O)[C@@](C)(O)CO[C@@H]1O[C@H](CO)[C@@H](O)[C@H](O)[C@H]1O`, which Activity is on record?
Its Activity is “Active”.

For `C/C(=C\CC[C@@](C)(O)[C@@H]1[C@H](O)C[C@H]2[C@@]1(C)CC[C@H]1C(C)(C)[C@@H](O[C@@H]3O[C@H](CO[C@@H]4OC[C@@H](O)[C@H](O)[C@H]4O)[C@@H](O)[C@H](O)[C@H]3O[C@@H]3O[C@@H](C)[C@H](O)[C@@H](O)[C@H]3O)CC[C@]21C)C[C@@H]1OC(=O)O[C@H]1[C@](C)(O)CO[C@@H]1O[C@H](CO)[C@@H](O)[C@H](O)[C@H]1O`, which Activity is on record?
The Activity was “Active”.

Which Activity does the source give for `CC(=O)N[C@H]1[C@H](O[C@H]2[C@H](O[C@H]3[C@H](O[C@H]4CC[C@]5(C)[C@H]6C[C@@H](O)[C@@H]([C@](C)(O)CC/C=C(\C)C[C@H](O)[C@@H](O)[C@@](C)(O)CO)[C@]6(C)CC[C@H]5C4(C)C)O[C@H](CO[C@@H]4OC[C@@H](O)[C@H](O)[C@H]4O)[C@@H](O)[C@@H]3O)O[C@@H](C)[C@H](O)[C@H]2O)O[C@H](CO)[C@@H](O)[C@@H]1O[C@@H]1OC[C@H](O)[C@H](O)[C@H]1O` here?
Its Activity is “Active”.

How did the Activity turn out when `C/C(=C\CC[C@@](C)(O)[C@@H]1[C@H](O)C[C@H]2[C@@]1(C)CC[C@H]1C(C)(C)[C@@H](O[C@@H]3O[C@H](CO[C@@H]4OC[C@@H](O)[C@H](O)[C@H]4O)[C@@H](O)[C@H](O)[C@H]3O[C@@H]3O[C@@H](C)[C@H](O)[C@@H](O)[C@H]3O)CC[C@]21C)C[C@@H]1OC(=O)O[C@H]1[C@](C)(O)CO` was run?
The Activity was “Active”.

How did the Activity turn out when `C/C(=C\CC[C@@](C)(O)[C@@H]1[C@H](O)C[C@H]2[C@@]1(C)CC[C@H]1C(C)(C)[C@@H](O[C@@H]3O[C@H](CO[C@@H]4OC[C@@H](O)[C@H](O)[C@H]4O)[C@@H](O)[C@H](O)[C@H]3O[C@@H]3O[C@@H](C)[C@H](O)[C@@H](O)[C@H]3O)CC[C@]21C)C[C@H](O)[C@@H](O)[C@@](C)(O)CO` was run?
Its Activity is “Active”.

How did the Activity turn out when `CC(=O)N[C@H]1[C@H](O[C@H]2[C@H](O[C@H]3[C@H](O[C@H]4CC[C@]5(C)[C@H]6C[C@@H](O)[C@@H]([C@](C)(O)CC/C=C(\C)C[C@H](O)[C@@H](O)[C@@](C)(O)CO)[C@]6(C)CC[C@H]5C4(C)C)O[C@H](CO[C@@H]4OC[C@@H](O)[C@H](O)[C@H]4O)[C@@H](O)[C@@H]3O)O[C@@H](C)[C@H](O)[C@H]2O)O[C@H](CO)[C@@H](O)[C@@H]1O` was run?
The Activity was “Active”.

With `CC(=O)N[C@H]1[C@H](O[C@H]2[C@H](O[C@H]3[C@H](O[C@H]4CC[C@]5(C)[C@H]6C[C@@H](O)[C@@H]([C@](C)(O)CC/C=C(\C)C[C@@H]7OC(=O)O[C@H]7[C@](C)(O)CO)[C@]6(C)CC[C@H]5C4(C)C)O[C@H](CO[C@@H]4OC[C@@H](O)[C@H](O)[C@H]4O)[C@@H](O)[C@@H]3O)O[C@@H](C)[C@H](O)[C@H]2O)O[C@H](CO)[C@@H](O)[C@@H]1O[C@@H]1OC[C@H](O)[C@H](O)[C@H]1O` as the compound, how does the Activity read?
Its Activity is “Active”.

With `CC(=O)N[C@H]1[C@H](O[C@H]2[C@H](O[C@H]3[C@H](O[C@H]4CC[C@]5(C)[C@H]6C[C@@H](O)[C@@H]([C@](C)(O)CC/C=C(\C)C[C@H](O)[C@H](O)C(C)(C)O)[C@]6(C)CC[C@H]5C4(C)C)O[C@H](CO)[C@@H](O)[C@@H]3O)O[C@@H](C)[C@H](O)[C@H]2O)O[C@H](CO)[C@@H](O)[C@@H]1O` as the compound, how does the Activity read?
The Activity was “Active”.

How did the Activity turn out when `CC(=O)N[C@H]1[C@H](O[C@H]2[C@H](O[C@H]3[C@H](O[C@H]4CC[C@]5(C)[C@H]6C[C@@H](O)[C@@H]([C@](C)(O)CC/C=C(\C)C[C@H](O)[C@H](O)C(C)(C)O)[C@]6(C)CC[C@H]5C4(C)C)O[C@H](CO[C@@H]4OC[C@@H](O)[C@H](O)[C@H]4O)[C@@H](O)[C@@H]3O)O[C@@H](C)[C@H](O)[C@H]2O)O[C@H](CO)[C@@H](O)[C@@H]1O` was run?
Its Activity is “Active”.

For `CC(=O)N[C@H]1[C@H](O[C@H]2[C@H](O[C@H]3[C@H](O[C@H]4CC[C@]5(C)[C@H]6C[C@@H](O)[C@@H]([C@](C)(O)CC/C=C(\C)C[C@H](O)[C@@H](O)[C@@](C)(O)CO[C@@H]7O[C@H](CO)[C@@H](O)[C@H](O)[C@H]7O)[C@]6(C)CC[C@H]5C4(C)C)O[C@H](CO[C@@H]4OC[C@@H](O)[C@H](O)[C@H]4O)[C@@H](O)[C@@H]3O)O[C@@H](C)[C@H](O)[C@H]2O)O[C@H](CO)[C@@H](O)[C@@H]1O`, which Activity is on record?
Its Activity is “Active”.

`CC(=O)N[C@H]1[C@H](O[C@H]2[C@H](O[C@H]3[C@H](O[C@H]4CC[C@]5(C)[C@H]6C[C@@H](O)[C@@H]([C@](C)(O)CC/C=C(\C)C[C@@H]7OC(=O)O[C@H]7[C@](C)(O)CO[C@@H]7O[C@H](CO)[C@@H](O)[C@H](O)[C@H]7O)[C@]6(C)CC[C@H]5C4(C)C)O[C@H](CO[C@@H]4OC[C@@H](O)[C@H](O)[C@H]4O)[C@@H](O)[C@@H]3O)O[C@@H](C)[C@H](O)[C@H]2O)O[C@H](CO)[C@@H](O)[C@@H]1O` was tested. Which Activity did it give?
Its Activity is “Active”.

For `CC(=O)N[C@H]1[C@H](O[C@H]2[C@H](O[C@H]3[C@H](O[C@H]4CC[C@]5(C)[C@H]6C[C@@H](O)[C@@H]([C@](C)(O)CC/C=C(\C)C[C@@H]7OC(=O)O[C@H]7[C@](C)(O)CO)[C@]6(C)CC[C@H]5C4(C)C)O[C@H](CO[C@@H]4OC[C@@H](O)[C@H](O)[C@H]4O)[C@@H](O)[C@@H]3O)O[C@@H](C)[C@H](O)[C@H]2O)O[C@H](CO)[C@@H](O)[C@@H]1O`, which Activity is on record?
The Activity was “Active”.

How did the Activity turn out when `CC(=O)N[C@H]1[C@H](O[C@H]2[C@H](O[C@H]3[C@H](O[C@H]4CC[C@]5(C)[C@H]6C[C@@H](O)[C@@H]([C@](C)(O)CC/C=C(\C)C[C@@H]7OC(=O)O[C@H]7C(C)(C)O)[C@]6(C)CC[C@H]5C4(C)C)O[C@H](CO[C@@H]4OC[C@@H](O)[C@H](O)[C@H]4O)[C@@H](O)[C@@H]3O)O[C@@H](C)[C@H](O)[C@H]2O)O[C@H](CO)[C@@H](O)[C@@H]1O` was run?
Its Activity is “Active”.
